Measurements from the supplement of paper PMC4862054.

These compounds were tested on BT-474 (assay: normalised response (% of control), CellTiter-Glo; higher = more viable cells (100 = DMSO, 0 = benzethonium chloride kill control)). Conditions: incubation time: 72 h.
Description: (§1)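 DSRT, 72 h incubation, CellTox Green / CellTiter-Glo readout. Signal is normalised to DMSO and benzethonium chloride controls. Value is the normalised response at dose 3.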

In order of rising normalised response:
1. COc1nc(N)nc2c1ncn2[C@@H]1O[C@H](CO)[C@@H](O)[C@@H]1O [Nelarabine] (100 nM)  89.2%
2. CC(C)N(CCCNC(=O)Nc1ccc(C(C)(C)C)cc1)C[C@H]1O[C@@H](n2cc(Br)c3c(N)ncnc32)[C@H](O)[C@@H]1O [SGC0946] (100 nM)  96%
3. O=C(CCBr)N1CCN(C(=O)CCBr)CC1 [Pipobroman] (100 nM)  102%

The compounds below were run on CAL-120 in the same assay as above. Conditions: incubation time: 72 h.
Description: as §1

In order of rising normalised response:
1. COc1nc(N)nc2c1ncn2[C@@H]1O[C@H](CO)[C@@H](O)[C@@H]1O [Nelarabine] (100 nM)  94.2%
2. Cc1c(CN2CCN(C(=O)[C@H](C)O)CC2)sc2c(N3CCOCC3)nc(-c3cnc(N)nc3)nc12 [GDC-0980] (100 nM)  96.2%
3. CC(=O)OC[C@H]1O[C@@H]([S-])[C@H](OC(C)=O)[C@@H](OC(C)=O)[C@@H]1OC(C)=O.CCP(CC)CC.[Au+] [Auranofin] (25 nM)  100%
4. CC(C)N(CCCNC(=O)Nc1ccc(C(C)(C)C)cc1)C[C@H]1O[C@@H](n2cc(Br)c3c(N)ncnc32)[C@H](O)[C@@H]1O [SGC0946] (100 nM)  101%
5. Cc1c(Cn2c(C)nc3c(C(=O)O)cc(N4CCOCC4)cc32)cccc1C(F)(F)F (100 nM)  102%
6. O=C(CCBr)N1CCN(C(=O)CCBr)CC1 [Pipobroman] (100 nM)  102%
7. O=C1c2c(O)ccc(O)c2C(=O)c2c(NCCNCCO)ccc(NCCNCCO)c21 [Mitoxantrone] (10 nM)  104%
8. CCCCC/C=C/C=C1/C(=O)C=C[C@@H]1C/C=C\CCCC(=O)O [15D-PGJ2] (8 nM)  107%
9. Cc1cccc(-c2nn3c(c2-c2ccnc4ccc(C(N)=O)cc24)CCC3)n1 [Galunisertib] (10 nM)  109%

What follows are compounds tested on CAL-51 in the same assay as above. Conditions: incubation time: 72 h.
Description: as §1

In order of rising normalised response:
1. Cc1c(Cn2c(C)nc3c(C(=O)O)cc(N4CCOCC4)cc32)cccc1C(F)(F)F (100 nM)  62.5%
2. Cc1c(CN2CCN(C(=O)[C@H](C)O)CC2)sc2c(N3CCOCC3)nc(-c3cnc(N)nc3)nc12 [GDC-0980] (100 nM)  86.3%
3. O=C(CCBr)N1CCN(C(=O)CCBr)CC1 [Pipobroman] (100 nM)  88%
4. COc1nc(N)nc2c1ncn2[C@@H]1O[C@H](CO)[C@@H](O)[C@@H]1O [Nelarabine] (100 nM)  90.7%
5. CC(C)N(CCCNC(=O)Nc1ccc(C(C)(C)C)cc1)C[C@H]1O[C@@H](n2cc(Br)c3c(N)ncnc32)[C@H](O)[C@@H]1O [SGC0946] (100 nM)  91.1%
6. CC(=O)OC[C@H]1O[C@@H]([S-])[C@H](OC(C)=O)[C@@H](OC(C)=O)[C@@H]1OC(C)=O.CCP(CC)CC.[Au+] [Auranofin] (25 nM)  92.5%
7. O=C1c2c(O)ccc(O)c2C(=O)c2c(NCCNCCO)ccc(NCCNCCO)c21 [Mitoxantrone] (10 nM)  93.5%
8. CCCCC/C=C/C=C1/C(=O)C=C[C@@H]1C/C=C\CCCC(=O)O [15D-PGJ2] (8 nM)  97.1%
9. Cc1cccc(-c2nn3c(c2-c2ccnc4ccc(C(N)=O)cc24)CCC3)n1 [Galunisertib] (10 nM)  120%

These compounds were tested on DU-4475 in the same assay as above. Conditions: incubation time: 72 h.
Description: as §1

In order of rising normalised response:
1. COc1nc(N)nc2c1ncn2[C@@H]1O[C@H](CO)[C@@H](O)[C@@H]1O [Nelarabine] (100 nM)  93.6%
2. O=C1c2c(O)ccc(O)c2C(=O)c2c(NCCNCCO)ccc(NCCNCCO)c21 [Mitoxantrone] (10 nM)  95.8%
3. Cc1c(CN2CCN(C(=O)[C@H](C)O)CC2)sc2c(N3CCOCC3)nc(-c3cnc(N)nc3)nc12 [GDC-0980] (100 nM)  98%
4. CC(C)N(CCCNC(=O)Nc1ccc(C(C)(C)C)cc1)C[C@H]1O[C@@H](n2cc(Br)c3c(N)ncnc32)[C@H](O)[C@@H]1O [SGC0946] (100 nM)  98%
5. CC(=O)OC[C@H]1O[C@@H]([S-])[C@H](OC(C)=O)[C@@H](OC(C)=O)[C@@H]1OC(C)=O.CCP(CC)CC.[Au+] [Auranofin] (25 nM)  98.2%
6. CCCCC/C=C/C=C1/C(=O)C=C[C@@H]1C/C=C\CCCC(=O)O [15D-PGJ2] (8 nM)  101%
7. Cc1c(Cn2c(C)nc3c(C(=O)O)cc(N4CCOCC4)cc32)cccc1C(F)(F)F (100 nM)  103%
8. O=C(CCBr)N1CCN(C(=O)CCBr)CC1 [Pipobroman] (100 nM)  106%
9. Cc1cccc(-c2nn3c(c2-c2ccnc4ccc(C(N)=O)cc24)CCC3)n1 [Galunisertib] (10 nM)  108%

What follows are compounds tested on HCC1937 in the same assay as above. Conditions: incubation time: 72 h.
Description: as §1

In order of rising normalised response:
1. Cc1c(CN2CCN(C(=O)[C@H](C)O)CC2)sc2c(N3CCOCC3)nc(-c3cnc(N)nc3)nc12 [GDC-0980] (100 nM)  89.3%
2. CC(=O)OC[C@H]1O[C@@H]([S-])[C@H](OC(C)=O)[C@@H](OC(C)=O)[C@@H]1OC(C)=O.CCP(CC)CC.[Au+] [Auranofin] (25 nM)  93.8%
3. CC(C)N(CCCNC(=O)Nc1ccc(C(C)(C)C)cc1)C[C@H]1O[C@@H](n2cc(Br)c3c(N)ncnc32)[C@H](O)[C@@H]1O [SGC0946] (100 nM)  94.4%
4. Cc1c(Cn2c(C)nc3c(C(=O)O)cc(N4CCOCC4)cc32)cccc1C(F)(F)F (100 nM)  94.5%
5. COc1nc(N)nc2c1ncn2[C@@H]1O[C@H](CO)[C@@H](O)[C@@H]1O [Nelarabine] (100 nM)  95.5%
6. CCCCC/C=C/C=C1/C(=O)C=C[C@@H]1C/C=C\CCCC(=O)O [15D-PGJ2] (8 nM)  99.1%
7. Cc1cccc(-c2nn3c(c2-c2ccnc4ccc(C(N)=O)cc24)CCC3)n1 [Galunisertib] (10 nM)  101%
8. O=C1c2c(O)ccc(O)c2C(=O)c2c(NCCNCCO)ccc(NCCNCCO)c21 [Mitoxantrone] (10 nM)  101%
9. O=C(CCBr)N1CCN(C(=O)CCBr)CC1 [Pipobroman] (100 nM)  106%

These compounds were tested on HCC1143 in the same assay as above. Conditions: incubation time: 72 h.
Description: as §1

In order of falling normalised response:
1. O=C(CCBr)N1CCN(C(=O)CCBr)CC1 [Pipobroman] (100 nM)  105%
2. CCCCC/C=C/C=C1/C(=O)C=C[C@@H]1C/C=C\CCCC(=O)O [15D-PGJ2] (8 nM)  104%
3. CC(=O)OC[C@H]1O[C@@H]([S-])[C@H](OC(C)=O)[C@@H](OC(C)=O)[C@@H]1OC(C)=O.CCP(CC)CC.[Au+] [Auranofin] (25 nM)  104%
4. O=C1c2c(O)ccc(O)c2C(=O)c2c(NCCNCCO)ccc(NCCNCCO)c21 [Mitoxantrone] (10 nM)  104%
5. Cc1cccc(-c2nn3c(c2-c2ccnc4ccc(C(N)=O)cc24)CCC3)n1 [Galunisertib] (10 nM)  103%
6. COc1nc(N)nc2c1ncn2[C@@H]1O[C@H](CO)[C@@H](O)[C@@H]1O [Nelarabine] (100 nM)  103%
7. Cc1c(Cn2c(C)nc3c(C(=O)O)cc(N4CCOCC4)cc32)cccc1C(F)(F)F (100 nM)  101%
8. CC(C)N(CCCNC(=O)Nc1ccc(C(C)(C)C)cc1)C[C@H]1O[C@@H](n2cc(Br)c3c(N)ncnc32)[C@H](O)[C@@H]1O [SGC0946] (100 nM)  101%
9. Cc1c(CN2CCN(C(=O)[C@H](C)O)CC2)sc2c(N3CCOCC3)nc(-c3cnc(N)nc3)nc12 [GDC-0980] (100 nM)  92.9%

The compounds below were run on BT-549 in the same assay as above. Conditions: incubation time: 72 h.
Description: as §1

In order of falling normalised response:
1. Cc1cccc(-c2nn3c(c2-c2ccnc4ccc(C(N)=O)cc24)CCC3)n1 [Galunisertib] (10 nM)  104%
2. CCCCC/C=C/C=C1/C(=O)C=C[C@@H]1C/C=C\CCCC(=O)O [15D-PGJ2] (8 nM)  99.3%
3. COc1nc(N)nc2c1ncn2[C@@H]1O[C@H](CO)[C@@H](O)[C@@H]1O [Nelarabine] (100 nM)  98.1%
4. O=C(CCBr)N1CCN(C(=O)CCBr)CC1 [Pipobroman] (100 nM)  97.6%
5. O=C1c2c(O)ccc(O)c2C(=O)c2c(NCCNCCO)ccc(NCCNCCO)c21 [Mitoxantrone] (10 nM)  96.7%
6. CC(=O)OC[C@H]1O[C@@H]([S-])[C@H](OC(C)=O)[C@@H](OC(C)=O)[C@@H]1OC(C)=O.CCP(CC)CC.[Au+] [Auranofin] (25 nM)  93.1%
7. CC(C)N(CCCNC(=O)Nc1ccc(C(C)(C)C)cc1)C[C@H]1O[C@@H](n2cc(Br)c3c(N)ncnc32)[C@H](O)[C@@H]1O [SGC0946] (100 nM)  91.3%
8. Cc1c(CN2CCN(C(=O)[C@H](C)O)CC2)sc2c(N3CCOCC3)nc(-c3cnc(N)nc3)nc12 [GDC-0980] (100 nM)  90.1%
9. Cc1c(Cn2c(C)nc3c(C(=O)O)cc(N4CCOCC4)cc32)cccc1C(F)(F)F (100 nM)  86.2%

These compounds were tested on CAL-85-1 in the same assay as above. Conditions: incubation time: 72 h.
Description: as §1

In order of rising normalised response:
1. COc1nc(N)nc2c1ncn2[C@@H]1O[C@H](CO)[C@@H](O)[C@@H]1O [Nelarabine] (100 nM)  94.7%
2. Cc1c(Cn2c(C)nc3c(C(=O)O)cc(N4CCOCC4)cc32)cccc1C(F)(F)F (100 nM)  96.6%
3. Cc1cccc(-c2nn3c(c2-c2ccnc4ccc(C(N)=O)cc24)CCC3)n1 [Galunisertib] (10 nM)  96.8%
4. O=C1c2c(O)ccc(O)c2C(=O)c2c(NCCNCCO)ccc(NCCNCCO)c21 [Mitoxantrone] (10 nM)  97.8%
5. CC(=O)OC[C@H]1O[C@@H]([S-])[C@H](OC(C)=O)[C@@H](OC(C)=O)[C@@H]1OC(C)=O.CCP(CC)CC.[Au+] [Auranofin] (25 nM)  99%
6. Cc1c(CN2CCN(C(=O)[C@H](C)O)CC2)sc2c(N3CCOCC3)nc(-c3cnc(N)nc3)nc12 [GDC-0980] (100 nM)  99.9%
7. CCCCC/C=C/C=C1/C(=O)C=C[C@@H]1C/C=C\CCCC(=O)O [15D-PGJ2] (8 nM)  100%
8. O=C(CCBr)N1CCN(C(=O)CCBr)CC1 [Pipobroman] (100 nM)  101%
9. CC(C)N(CCCNC(=O)Nc1ccc(C(C)(C)C)cc1)C[C@H]1O[C@@H](n2cc(Br)c3c(N)ncnc32)[C@H](O)[C@@H]1O [SGC0946] (100 nM)  102%

Each compound was assayed on HDQ-P1 in the same assay as above. Conditions: incubation time: 72 h.
Description: as §1

In order of falling normalised response:
1. O=C1c2c(O)ccc(O)c2C(=O)c2c(NCCNCCO)ccc(NCCNCCO)c21 [Mitoxantrone] (10 nM)  106%
2. Cc1cccc(-c2nn3c(c2-c2ccnc4ccc(C(N)=O)cc24)CCC3)n1 [Galunisertib] (10 nM)  104%
3. Cc1c(Cn2c(C)nc3c(C(=O)O)cc(N4CCOCC4)cc32)cccc1C(F)(F)F (100 nM)  103%
4. CCCCC/C=C/C=C1/C(=O)C=C[C@@H]1C/C=C\CCCC(=O)O [15D-PGJ2] (8 nM)  103%
5. O=C(CCBr)N1CCN(C(=O)CCBr)CC1 [Pipobroman] (100 nM)  102%
6. CC(=O)OC[C@H]1O[C@@H]([S-])[C@H](OC(C)=O)[C@@H](OC(C)=O)[C@@H]1OC(C)=O.CCP(CC)CC.[Au+] [Auranofin] (25 nM)  101%
7. COc1nc(N)nc2c1ncn2[C@@H]1O[C@H](CO)[C@@H](O)[C@@H]1O [Nelarabine] (100 nM)  95.9%
8. CC(C)N(CCCNC(=O)Nc1ccc(C(C)(C)C)cc1)C[C@H]1O[C@@H](n2cc(Br)c3c(N)ncnc32)[C@H](O)[C@@H]1O [SGC0946] (100 nM)  93%
9. Cc1c(CN2CCN(C(=O)[C@H](C)O)CC2)sc2c(N3CCOCC3)nc(-c3cnc(N)nc3)nc12 [GDC-0980] (100 nM)  84%

These compounds were tested on HCC1599 in the same assay as above. Conditions: incubation time: 72 h.
Description: as §1

In order of rising normalised response:
1. CCCCC/C=C/C=C1/C(=O)C=C[C@@H]1C/C=C\CCCC(=O)O [15D-PGJ2] (8 nM)  86.3%
2. CC(=O)OC[C@H]1O[C@@H]([S-])[C@H](OC(C)=O)[C@@H](OC(C)=O)[C@@H]1OC(C)=O.CCP(CC)CC.[Au+] [Auranofin] (25 nM)  89.1%
3. Cc1c(Cn2c(C)nc3c(C(=O)O)cc(N4CCOCC4)cc32)cccc1C(F)(F)F (100 nM)  101%
